Active and inactive are the calls of the source. The rule behind the calls is not given here.
Tested on: rodent carcinogenicity bioassays, tumor incidence
Assay: CCRIS carcinogenicity studies
How it was run: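 Archive of carcinogenicity, mutagenicity, tumor promotion and tumor inhibition results drawn from journals, NCI reports and other sources, expert-reviewed; covers 1985-2011 and is no longer updated.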

## Brc1c2ccccc2cc2c1ccc1ccccc12
Species: MOUSE, Strain/Sex: B6C3F1/MALE, Route: INTRAPERITONEAL, Dose: 0, 1600 NMOL (TOTAL DOSE) ADMINISTERED IN DOSES OF 1/7 WITHIN 24 HR OF BIRTH, 2/7 AT 8 DAYS OF AGE AND 4/7 AT 15 DAYS OF, Tumor Site: Type of Lesion: LIVER: ADENOMA, CARCINOMA
  carcinogen call: active; positive

## O=[N+]([O-])c1ccc(N=Nc2c(O)ccc3ccccc23)c([N+](=O)[O-])c1
Species: MOUSE, Strain/Sex: ICR/FEMALE, Route: DERMAL, Dose: 0, 1 MG IN 0.1 ML DISTILLED WATER 2/WK FOR A MEAN TOTAL DOSE OF 143.7 MG (STUDY DURATION: 18 MO)
  carcinogen call: inactive; negative
Species: MOUSE, Strain/Sex: ICR/MALE, Route: DERMAL, Dose: 0, 1 MG IN 0.1 ML DISTILLED WATER 2/WK FOR A MEAN TOTAL DOSE OF 143.7 MG (STUDY DURATION: 18 MO)
  carcinogen call: inactive; negative

## C[C@]12C=CC(=O)C=C1CC[C@@H]1[C@@H]2[C@@H](O)C[C@@]2(C)[C@H]1CC[C@]2(O)C(=O)COC(=O)CCCc1ccc(N(CCCl)CCCl)cc1
Species: RAT, Strain/Sex: SPRAGUE-DAWLEY/FEMALE, Route: GAVAGE, Dose: 0, 12 MG/KG ADMINISTERED 1, 2, 4.5 OR 9 TIMES PER MO FOR 18 MO TO GIVE MEDIAN TOTAL DOSES OF 216, 432, 938, 1872 MG/KG (, Dose: 0, 12 MG/KG ADMINISTERED 1, 2, 4.5 OR 9 TIMES PER MO FOR 18 MO TO GIVE MEDIAN TOTAL DOSES OF 216, 432, 938, 1872 MG/KG (, Tumor Site: Type of Lesion: EAR CANAL: SQUAMOUS-CELL CARCINOMA
  carcinogen call: active; positive

## CN(C)C(=O)Cl
Species: MOUSE, Route: DERMAL, Tumor Site: Type of Lesion: INTEGUMENTARY SYSTEM (SKIN)
  carcinogen call: active; positive
Species: MOUSE, Route: INTRAPERITONEAL, SUBCUTANEOUS, Tumor Site: Type of Lesion: INJECTION SITE
  carcinogen call: active; positive

## Cc1ccc2c(c1)C1=Nc3ccccc3C3=Nc4ccccc4C(=N2)N31
Species: MOUSE, Strain/Sex: ALBINO/MALE, FEMALE, Route: DERMAL, Tumor Site: Type of Lesion: SKIN: TUMOR
  carcinogen call: active; positive

## O=NN1CCCCCCC1
Species: HAMSTER, Strain/Sex: EUROPEAN/FEMALE, Route: SUBCUTANEOUS, Dose: 11, 22, 44 MG/KG 3/WK, Dose: 11, 22, 44 MG/KG 3/WK, Tumor Site: Type of Lesion: LUNG: ADENOCARCINOMA, SQUAMOUS CELL CARCINOMA, NASAL CAVITY: SQUAMOUS CELL CARCINOMA
  carcinogen call: active; positive
Species: HAMSTER, Strain/Sex: EUROPEAN/MALE, Route: SUBCUTANEOUS, Dose: 16.5, 33, 66 MG/KG 3/WK, Dose: 16.5, 33, 66 MG/KG 3/WK, Tumor Site: Type of Lesion: LUNG: ADENOCARCINOMA, SQUAMOUS CELL CARCINOMA, NASAL CAVITY: SQUAMOUS CELL CARCINOMA
  carcinogen call: active; positive
Species: HAMSTER, Strain/Sex: SYRIAN/MALE, Route: ORAL, Dose: 50, 200 MG/L 5 NIGHT/WK FOR 50 WK IN DRINKING WATER, Tumor Site: Type of Lesion: NASAL CAVITY, LARYNX, PHARYNX, TRACHEA, ESOPHAGUS, FORESTOMACH, Tumor Site: Type of Lesion: NASAL CAVITY, LARYNX, PHARYNX, TRACHEA, ESOPHAGUS, FORESTOMACH
  carcinogen call: active; positive
Species: RAT, Strain/Sex: LISTER/FEMALE, Route: SUBCUTANEOUS, Dose: 0, 1 MG 1/WK FOR 10 WK (STUDY DURATION: 104 WK)
  carcinogen call: inactive; negative
Species: RAT, Strain/Sex: MRC/MALE,FEMALE, Route: ORAL, Dose: 100 MG/L 5 D/WK FOR 30 WK IN DRINKING WATER, Tumor Site: Type of Lesion: ESOPHAGUS, TRACHEA: SQUAMOUS CELL PAPILLOMA, LUNG: SQUAMOUS CELL CARCINOMA, Tumor Site: Type of Lesion: ESOPHAGUS, TRACHEA: SQUAMOUS CELL PAPILLOMA, LUNG: SQUAMOUS CELL CARCINOMA
  carcinogen call: active; positive

## NCCN
Species: MOUSE, Strain/Sex: C3H/MALE, Route: DERMAL, Dose: 0, 25 µL OF A 1% DEIONIZED WATER SOLUTION 3/WK FOR LIFESPAN (STUDY DURATION: LIFESPAN)
  carcinogen call: inactive; negative
Species: RAT, Strain/Sex: F344/FEMALE, Route: ORAL, Dose: 0, 20, 100, 350 MG/KG/D IN DIET FOR 104 WK (STUDY DURATION: 104 WK), Dose: 0, 20, 100, 350 MG/KG/D IN DIET FOR 104 WK (STUDY DURATION: 104 WK)
  carcinogen call: inactive; negative
Species: RAT, Strain/Sex: F344/MALE, Route: ORAL, Dose: 0, 20, 100, 350 MG/KG/D IN DIET FOR 104 WK (STUDY DURATION: 104 WK), Dose: 0, 20, 100, 350 MG/KG/D IN DIET FOR 104 WK (STUDY DURATION: 104 WK)
  carcinogen call: inactive; negative

## Cc1ccc([N+]#N)cc1
Species: MOUSE, Strain/Sex: SWISS/FEMALE, Route: SUBCUTANEOUS, Dose: 0, 50 UG/G 1/WK FOR 16 OR 19 WK (STUDY DURATION: 140 WK), Tumor Site: Type of Lesion: SUBCUTANEOUS TISSUE: TUMOR, SKIN: TUMOR
  carcinogen call: active; positive
Species: MOUSE, Strain/Sex: SWISS/MALE, Route: SUBCUTANEOUS, Dose: 0, 50 UG/G 1/WK FOR 16 OR 19 WK (STUDY DURATION: 140 WK), Tumor Site: Type of Lesion: SUBCUTANEOUS TISSUE: TUMOR
  carcinogen call: active; positive

## Nc1ccc2c(c1)Cc1ccccc1-2
Species: MOUSE, Strain/Sex: MALE,FEMALE, Route: DERMAL, Dose: 4% SOLN IN ACETONE, 90 APPLICATIONS (TOTAL DOSE: 270 MG), Tumor Site: Type of Lesion: LIVER: HEPATOMA, INTESTINES
  carcinogen call: active; positive
Species: RAT, Strain/Sex: F344/MALE, Route: INJECTION, Dose: 0, 1 UMOL IN 0.5 ML OF SOLUTION CONTAINING 0.4 ML PHOSPHATE BUFFERED SALINE/ GENTAMYCIN (PH 7) AND 0.1 ML DMSO INJECTED
  carcinogen call: inactive; negative
Species: RAT, Strain/Sex: HOLTZMAN/FEMALE, Route: ORAL, Dose: 1.62 MMOL/KG IN DIET, Tumor Site: Type of Lesion: MAMMARY GLAND, EAR (DUCT)
  carcinogen call: active; positive
Species: RAT, Strain/Sex: HOLTZMAN/MALE, Route: ORAL, Dose: 1.62 MMOL/KG IN DIET, Tumor Site: Type of Lesion: LIVER, EAR (DUCT), INTESTINES (SMALL), Tumor Site: Type of Lesion: LIVER, EAR (DUCT), INTESTINES (SMALL)
  carcinogen call: active; positive
Species: RAT, Strain/Sex: WISTAR/MALE, Route: DERMAL, Dose: 4% SOLN IN ACETONE 3/WK FOR 30 WK (TOTAL DOSE: 270 MG), Tumor Site: Type of Lesion: LIVER: HEPATOCELLULAR CARCINOMA, EAR (ZYMBAL GLAND): CARCINOMA
  carcinogen call: active; positive

## S=C=NCCc1ccccc1
Species: RAT, Strain/Sex: F344/MALE, Route: DIET (ORAL), Dose: 0.1% FOR 12 WK (STUDY DURATION: 48 WK)
  carcinogen call: inactive; negative (bladder hyperplasias observed)
Species: RAT, Strain/Sex: F344/MALE, Route: DIET (ORAL), Dose: 0.1% FOR 24 WK (STUDY DURATION: 48 WK)
  carcinogen call: inactive; negative (bladder hyperplasias observed)
Species: RAT, Strain/Sex: F344/MALE, Route: DIET (ORAL), Dose: 0.1% FOR 48 WK (STUDY DURATION: 48 WK)
  carcinogen call: inactive; negative (bladder hyperplasias and dysplasias observed)
Species: RAT, Strain/Sex: F344/MALE, Route: ORAL, Dose: 0.1% IN DIET FOR 32 WK, THEN SWITCHED TO BASAL DIET FOR 16 WK (STUDY DURATION: 48 WK), Tumor Site: Type of Lesion: URINARY BLADDER: CARCINOMA
  carcinogen call: active; positive
Species: RAT, Strain/Sex: F344/MALE, Route: ORAL, Dose: 0.1% IN DIET FOR 48 WK (STUDY DURATION: 48 WK), Tumor Site: Type of Lesion: URINARY BLADDER: CARCINOMA
  carcinogen call: active; positive

## Clc1c(Cl)c(Cl)c(Cl)c(Cl)c1Cl
Species: HAMSTER, Route: ORAL, Tumor Site: Type of Lesion: THYROID GLAND, LIVER
  carcinogen call: active; positive
Species: MOUSE, Route: ORAL, Tumor Site: Type of Lesion: LIVER
  carcinogen call: active; positive
Species: RAT, Strain/Sex: F344/FEMALE, Route: ORAL, Dose: 0, 0.02% IN DIET FOR 30 WK (STUDY DURATION: 35 WK)
  carcinogen call: inactive; negative
Species: RAT, Strain/Sex: F344/FEMALE, Route: ORAL, Dose: 0, 0.02% OF DIET FOR 90 WK (STUDY DURATION: 90 WK), Tumor Site: Type of Lesion: LIVER: HEPATOCELLULAR CARCINOMA OR NEOPLASTIC NODULE
  carcinogen call: active; positive
Species: RAT, Strain/Sex: F344/MALE, Route: ORAL, Dose: 0, 0.02% IN DIET FOR 30 WK (STUDY DURATION: 35 WK)
  carcinogen call: inactive; negative
Species: RAT, Strain/Sex: F344/MALE, Route: ORAL, Dose: 0, 0.02% OF DIET FOR 90 WK (STUDY DURATION: 90 WK)
  carcinogen call: inactive; negative

Source: PubChem BioAssay AID1259411 (Chemical Carcinogenesis Research Information System (CCRIS), 2018)
